Measurements from PMC8758724, “Molecular mechanism of agonism and inverse agonism in ghrelin receptor” (Nature Communications, 2022).
Entries after “also recorded” stand apart in the source; their conditions may differ.

Legend:
ghrelin receptor mutants = test: IP1 accumulation, ghrelin receptor mutants, HEK293 cells, 37 °C 2 h (compound 21 containing 10 nM ghrelin); format: cell-based, human
Excerpt: Fig. 2 The binding mode of PF-05190457 with the ghrelin receptor. a The detailed binding mode of PF-05190457 in the orthosteric pocket of the ghrelin receptor. The |Fo| − |Fc| omit map (contoured at 3.0 σ) for PF-05190457 (shown as marine blue sticks). […] The diazaspiro core is shown in pink, arm-1 is sky blue, and arm-2 is light green. The red solid lines indicate hydrogen bonds involved in interactions with the side chains of key residues. d–f Key residues of the ghrelin receptor (wheat sticks) involved in ligand binding in cavity III (d), cavity I (e), and cavity IV (f). The binding pocket is highly hydrophobic, and the particular polar network is shown as black dotted lines. g IP1 accumulation induced by the inverse agonist PF-05190457 and antagonist compound 21. Bars represent the difference in the calculated potency (pIC50) of the inverse agonist for mutations relative to the WT ghrelin receptor. Data are colored according to extent of effect. nd not detected, **P < 0.01, ***P < 0.001 (one-way analysis of variance (ANOVA) followed by Dunnett’s test, compared with the response of WT, P < 0.001, P < 0.001, P < 0.001, P > 0.999, nd, nd, P = 0.05, nd, P < 0.001, P < 0.001, nd, nd, nd, nd, nd, nd, P < 0.01, P = 0.264, P < 0.001, nd, P < 0.001, nd from left to right). Data represent the mean ± SEM from n = 3 biologically independent experiments performed in triplicate. […] The salt bridges between E124^3.33 and R283^6.55 as well as between R102^2.63 and Q120^3.29, are broken upon PF-05190457 binding.
To measure the activity of inverse agonist PF-05190457 (Tocris, Cat. No. 6350), we carried out IP1 accumulation assays for ghrelin receptor independent of agonist. The agonist ghrelin and antagonist compound 21 were also performed as the control. The cDNA of ghrelin receptor subcloned into pcDNA3.1(+) expression vector with a HA signal sequence followed by a Flag tag at the N-terminus. Point mutations used in our study were generated by using Q5 site-Directed Mutagenesis kit (NEB). All the constructs were verified by sequencing. The constructs were expressed in HEK293 cells using PEI transfection reagent (YEASEN, 40815es03) according to the manufacturer’s instruction. Cells were harvested 48 h post transfection.
IP accumulation was measured using Cisbio IP1 assay kit (Cisbio, 62IPAPEB), which has been previously described. In brief, the harvested cells were distributed in a low volume 96-well dish and stimulated with increased concentration of inverse agonist PF-05190457, agonist ghrelin peptide or antagonist compound 21 containing 10 nM ghrelin peptide at 37 °C for 2 h. After that, d2-labeled IP1 and cryptate-labeled anti-IP1 monoclonal antibody dissolved in Lysis Buffer were added to the wells. After 1 h incubation at room temperature. IP1 was quantified using Synergy H1 microplate reader (BioTek) with excitation at 320 nm, emission at 620 nm, and 665 nm. The accumulation of IP1 was calculated according to a standard dose–response curve in GraphPad Prism 8 (GraphPad Software). Data were represented as the mean ± SEM from three independent experiments and all experiments were repeated at least three times.
Supplementary Fig. 6: IP1 accumulation assay.
(a) Expression level of the ghrelin receptor mutants. Data represent the mean ± SEM from three independent experiments performed in triplicate. ns, not significant, **p < 0.01, ***p < 0.001 (one-way analysis of variance [ANOVA] followed by Dunnett’s test, compared with the response […]
0.001, p=0.996, p=0.008, p=0.999 from left to right). Data represent the mean ± SEM from n=3 biologically independent experiments performed in triplicate.
(b) IP1 accumulation measurement induced by inverse agonist PF-05190457(left), agonist ghrelin (middle) and antagonist compound 21 (right). ns, not significant; nd, not detected; ***p < 0.001 […]
< 0.001, nd, nd, nd, p=0.264, nd, nd from left to right). Data represent the mean ± SEM from […]

[1] = test system: wild-type ghrelin receptor; test: IP1 accumulation, wild-type ghrelin receptor, HEK293 cells, 37 °C 2 h, Cisbio IP1 kit; format: cell-based, human; details: WT
Method: Fig. 1 Overall structures of ghrelin receptors bound to inverse agonist and agonist. a Dose-dependent responses of endogenous agonist ghrelin, inverse agonist PF-05190457 and antagonist compound 21 containing 10 nM ghrelin peptide at wild-type ghrelin receptor measured by cellular IP1 accumulation assays. […] Data represent the mean ± SEM from n = 3 biologically independent experiments performed in triplicate. b View from within the plane of the membrane. The inverse agonist-bound ghrelin receptor is represented as a wheat cartoon, and PF-05190457 is shown as a marine blue sphere. Cryo-EM structure of the agonist ghrelin-bound ghrelin receptor-Gαo1-scFv16 complex. c Ghrelin peptides and receptors are shown as deep salmon spheres and aquamarine cartoons, respectively. The Go heterotrimer and scFv16 are shown in the gray cartoon. d View from the extracellular side of the membrane. […]
IP accumulation was measured using Cisbio IP1 assay kit (Cisbio, 62IPAPEB), which has been previously described. […] IP1 was quantified using Synergy H1 microplate reader (BioTek) with excitation at 320 nm, emission at 620 nm, and 665 nm. The accumulation of IP1 was calculated according to a standard dose–response curve in GraphPad Prism 8 (GraphPad Software). […]

ghrelin receptor [2] = details: cited from earlier work
Excerpt: The ghrelin receptor is activated by endogenous ghrelin peptide and contains constitutive activity as ~50% of the maximal activity in the absence of ghrelin peptide.

ghrelin receptor [3] = details: cited from earlier work; remark: listed apart in the source
Excerpt: (50% activity independent of the endogenous ligand ghrelin). The ghrelin receptor exerts a wide range of physiological functions, including appetite regulation, alcohol consumption, adipocyte metabolism, and glucose homeostasis[11]–[14], due to its broad distribution and multiple signaling pathways through divergent G-protein coupling or β-arrestin recruitment. The endogenous agonist ghrelin is a 28-amino acid peptide secret ...

Cc1cc(-c2ccc3c(c2)CC[C@H]3N2CC3(CCN(C(=O)Cc4cn5cc(C)sc5n4)CC3)C2)ncn1 [PF-05190457]
inverse agonism potency, effect of mutation (ghrelin receptor mutants; D99^2.60A): significantly reduced the potency of inverse agonism | inverse agonism potency, effect of mutation (ghrelin receptor mutants; E124^3.33A): impaired the inverse agonism potency | inverse agonism potency, effect of mutation (ghrelin receptor mutants; F119^3.28A): essential for the inverse agonism potency | inverse agonistic activity, effect of mutation (ghrelin receptor mutants; F279^6.51A): significantly reduced the inverse agonistic activity; also recorded: significantly reduced the potency of inverse agonism | inverse agonistic activity, effect of mutation (ghrelin receptor mutants; F312^7.42A): significantly reduced the inverse agonistic activity; also recorded: significantly reduced the potency of inverse agonism | inverse agonism potency, effect of mutation (ghrelin receptor mutants; Q120^3.29A): essential for the inverse agonism potency | inverse agonism potency, effect of mutation (ghrelin receptor mutants; R283^6.55A): impaired the inverse agonism potency | inverse agonism potency, effect of mutation (ghrelin receptor mutants; S308^7.38A): decreased the inverse agonism potency | inverse agonistic activity, effect of mutation (ghrelin receptor mutants; W276^6.48A): significantly reduced the inverse agonistic activity; also recorded: significantly reduced the potency of inverse agonism | effect on constitutive (basal) activity of the ghrelin receptor [1]: functions as an inverse agonist to significantly reduce basal activity; also recorded: significantly reduced

Cc1nc2ccc(Oc3ccc(Br)cc3F)nc2c(=O)n1C[C@H]1CCCN(C(C)C)C1 [compound 21]
potency, effect of mutation (ghrelin receptor mutants; F279^6.51A): impaired the potency | potency, effect of mutation (ghrelin receptor mutants; F312^7.42A): impaired the potency | potency, effect of mutation (ghrelin receptor mutants; W276^6.48A): impaired the potency | effect on constitutive activity of the ghrelin receptor (ghrelin receptor [2]): had no effect on the constitutive activity of the ghrelin receptor

unacylated form of ghrelin: unacylated form of ghrelin (GSSFLSPEHQRVQQRKESKKPPAKLQPR; Ghrelin-28 unacylated; UniProt Q9UBU3 24-51, looked up)
activation of the ghrelin receptor (ghrelin receptor [3]): does not bind or activate the ghrelin receptor at all | binding to the ghrelin receptor (ghrelin receptor [3]): does not bind
